According to patent publication US10174312B2 (priority 2014, dated 2019):
Like-named read-outs stand apart in the source and are kept apart here. Starred links: 1 amine or outer side, 2 acyl side, 3 side chain; linkers in the order of their positions; H or OH if unused. Positions of bridges follow the written chain, without caps; N, C: chain ends. Non-standard residues stand in square brackets, D forms with d. Residues, ends and D or L forms follow the SMILES beside them. Chains are numbered I, II in the order given. Actinocin(9to1) = Cc1c2oc3c(C)ccc(C(=O)[*:1])c3nc-2c(C(=O)[*:2])c(N)c1=O; NMeV = CN[C@H](C(=O)O)C(C)C; Sar = CNCC(=O)O

Key:
[1] = test system: pool of the S. pombe heterozygous deletion strain; format: cell-based, Schizosaccharomyces pombe; conditions: for growth inhibition effect on the strain (sampling errors confirmed, FIG. 3): 20 generation subculture, expected vs sampled generation
Method: In the course of 10 generation sub-culture and 20 generation sub-culture, OD600 was measured to confirm the doubling time. Then, pool fitness by doubling time (PFDT) was calculated by the below mathematical formula 2. […] PFDT=doubling time of the pool not-treated with the drug/doubling time of the pool treated with the drug [Mathematical Formula 2]

[2] = test system: S. pombe genome-wide heterozygous deletion strain; experiment: Chemical-genetic profile by DNA chip array (S. pombe compendium, DI-HI / ecDT screening); format: cell-based, Schizosaccharomyces pombe
Text: To make the genetic compendium of S. pombe heterozygous deletion strain pool, DNA was separated from the strain by the conventional method, followed by chip-hybridization to quantify the growth of the strain (S. E. Pierce, E. L. Fung, D. F. Jaramillo, et al., Nat. Methods 3 (2006) 601-603).
Then, a short DNA barcode sequence in 20 bp long (named “TAG”) was inserted in the complementary region of the genomic DNA, followed by amplification with universal primers for the flanking sequence. The amount of the amplified TAG was judged by the growth of each strain, which was quantified by using the DNA chip (Affymetrix, USA) constructed with the complementary sequence of TAG.
The result of the quantitative DNA chip array was not modified by background correction, normalization, or perfect match (PM) and the mean value was used as raw intensity (Iraw). The parameter for preprocessing the raw intensity was calculated by DNA chip array according to the conventional method informed to those in the art. To calculate the minimum value of the comparative fitness by saturated intensity, modification was performed according to the below mathematical formula 3. The normalized constant was applied to each analysis based on the modified raw intensity. For the modification, chip array was repeated 5 times with the glycerol stock deletion strain pool and the mean value was obtained. The normalized final intensity was log 2-transformed for after analysis. Icorrected=Iraw×exp(−Irawα) [Mathematical Formula 3]
In the mathematical formula 3, ‘Icorrected’ indicates the modified intensity; ‘Iraw’ indicates the raw intensity; and ‘α’ indicates the variable of modification function calculated with UPTAG and DNATAG which are 0.0003412759 and 0.0002767581 respectively.
Error model was calculated according to the conventional method in order to calculate the fitness score of the drug treated S. pombe heterozygous deletion strain.
The compendium of the drug competitive growth experiment was used as the reference set. […] N and the line of drugs of 1 . . . j . . . M. The average and variable of the reference set of each strain were calculated by the below mathematical formula 4.
Z-scores and p-values of the 4400 heterozygous deletion strains were obtained with 47 drugs. The amount of each strain was represented by UPTAG and DNTAG inserted in the upstream and the downstream of the gene that had been eliminated from each strain. To investigate the significance of p-value presenting the detect of the growth in the drug treated strain, the expected intensity of UPTAG and DNTAG in the strain was calculated by the mathematical formula 5. From the mean value thereof, Z-score presenting the statistical distance was obtained. The obtained Z-score was applied to error function or standard normal distribution according to the mathematical formula 6, and the growth detect of each strain was judged by p-value in the range of 0˜1.
The growth defect by the presence or absence of each drug was investigated by the method illustrated in the schematic diagram of FIG. 5 to judge whether the heterozygous deletion gene was haplo-insufficient (HI) or haplo-sufficient (HS).

[3] = test system: S. cerevisiae heterozygous deletion strain library; conditions: cited from earlier work
[4] = each drug at its Dose(M) of Table 2, 25° C.
[5] = each drug at its Dose(M) of Table 2, 25° C., PFDT = doubling time untreated pool / treated pool
[6] = second, lower dose 1.50E−08 M (Drug ID 67.2, 71.2)

Compound: Cc1c2oc3c(C)ccc(C(=O)N[C@@H]4C(=O)N[C@H](C(C)C)C(=O)N5CCC[C@H]5C(=O)N(C)CC(=O)N(C)[C@@H](C(C)C)C(=O)O[C@@H]4C)c3nc-2c(C(=O)N[C@@H]2C(=O)N[C@H](C(C)C)C(=O)N3CCC[C@H]3C(=O)N(C)CC(=O)N(C)[C@@H](C(C)C)C(=O)O[C@@H]2C)c(N)c1=O [Actinomycin D] (I: T[dV]P[Sar][NMeV] / II: T[dV]P[Sar][NMeV]; ester I:1-I:C, II:1-II:C; linker I:N-II:N via Actinocin(9to1))
- growth inhibition effect on the strain (sampling errors confirmed, FIG. 3) [1]: growth inhibition effect
- PF2DT: PFDT of the sample obtained from 20 generation subculture [1, 4]: 0.709
- PF1DT: PFDT of the sample obtained from 10 generation subculture [1, 5]: 0.650

Compound: C[C@H]1CCC/C=C/[C@@H]2C[C@H](O)C[C@H]2[C@H](O)/C=C/C(=O)O1 [Brefeldin A]
- PF2DT: PFDT of the sample obtained from 20 generation subculture [1, 4]: 0.986
- PF1DT: PFDT of the sample obtained from 10 generation subculture [1, 5]: 0.973

Compound: Clc1ccccc1C(c1ccccc1)(c1ccccc1)n1ccnc1 [Clotrimazole]
- −log (p) (Spo) ([2]; gene erg11, dose 0.1 μM): −13.15

Compound: C=C1[C@@H](C)[C@H]2[C@H](Cc3ccccc3)NC(=O)[C@]23OC(=O)/C=C/[C@H](O)CCC[C@@H](C)C/C=C/[C@H]3[C@@H]1O [Cytochalasin B]
- PF2DT: PFDT of the sample obtained from 20 generation subculture [1, 4]: 0.785
- PF1DT: PFDT of the sample obtained from 10 generation subculture [1, 5]: 0.954

Compound: COc1ccc([C@@H]2Sc3ccccc3N(CCN(C)C)C(=O)[C@@H]2OC(C)=O)cc1.Cl [Dilitiazem hydrochloride]
- PF2DT: PFDT of the sample obtained from 20 generation subculture [1, 4]: 0.890
- PF1DT: PFDT of the sample obtained from 10 generation subculture [1, 5]: 0.896

Compound: OCCN(CCO)c1nc(N2CCCCC2)c2nc(N(CCO)CCO)nc(N3CCCCC3)c2n1 [Dipyridamole]
- growth inhibition effect on the strain (sampling errors confirmed, FIG. 3) [1]: growth inhibition effect

Compound: COc1cccc2c1C(=O)c1c(O)c3c(c(O)c1C2=O)C[C@@](O)(C(=O)CO)C[C@@H]3O[C@H]1C[C@H](N)[C@H](O)[C@H](C)O1 [Doxorubicin]
- −log (p) (Sce) ([3]; gene RPA135, dose 62.5): −6.279
- −log (p) (Sce) ([3]; gene TFP1, dose 62.5): −8.374
- −log (p) (Sce) ([3]; gene VMA7, dose 62.5): −28.85
- −log (p) (Spo) ([2]; gene rpa2, dose 24 μM): −15.09
- −log (p) (Spo) ([2]; gene vma1, dose 24 μM): −28.26
- −log (p) (Spo) ([2]; gene vma7, dose 24 μM): −6.287

Compound: CCCCOc1ccc(C(=O)CCN2CCCCC2)cc1 [Dyclonine]
- −log (p) (Sce) ([3]; gene NAR1, dose 500): −4.84
- −log (p) (Sce) ([3]; gene RPN12, dose 500): −4.338
- −log (p) (Sce) ([3]; gene SEC24, dose 500): −6.632
- growth inhibition effect on the strain (sampling errors confirmed, FIG. 3) [1]: growth inhibition effect
- −log (p) (Spo) ([2]; gene SPAC22F8.08, dose 68 μM): −12.19
- −log (p) (Spo) ([2]; gene SPCC1450.10c, dose 68 μM): −6.928
- −log (p) (Spo) ([2]; gene rpn12, dose 68 μM): −40.98

Compound: CC[C@H]1OC(=O)[C@H](C)[C@@H](O[C@H]2C[C@@](C)(OC)[C@@H](O)[C@H](C)O2)[C@H](C)[C@@H](O[C@@H]2O[C@H](C)C[C@H](N(C)C)[C@H]2O)[C@](C)(O)C[C@@H](C)C(=O)[C@H](C)[C@@H](O)[C@]1(C)O [Erythromycin]
- −log (p) (Sce) ([3]; gene RIM2, dose 2.5 mg/ml): −4.63
- −log (p) (Spo) ([2]; gene SPAC688.09, dose 250 μM): −42.17

Compound: O=C(CCCN1CCC(O)(c2ccc(Cl)cc2)CC1)c1ccc(F)cc1 [Haloperidol]
- −log (p) (Sce) ([3]; gene YLR243W, dose 125): −7.301
- −log (p) (Spo) ([2]; gene fet5, dose 88.3 μM): −4.402

Compound: CN(Cc1cnc2nc(N)nc(N)c2n1)c1ccc(C(=O)N[C@@H](CCC(=O)O)C(=O)O)cc1 [Methotrexate]
- −log (p) (Sce) ([3]; gene RSC8, dose 250): −4.275
- −log (p) (Spo) ([2]; gene ssr2, dose 500 μM): −4.28

Compound: CO[C@@]12[C@H](COC(N)=O)C3=C(C(=O)C(C)=C(N)C3=O)N1C[C@@H]1N[C@@H]12 [Mitomycin C]
- −log (p) (Sce) ([3]; gene SPC105, dose 1000): −14.52
- −log (p) (Sce) ([3]; gene STH1, dose 1000): −5.49
- −log (p) (Sce) ([3]; gene SWI6, dose 1000): −5.228
- PF2DT: PFDT of the sample obtained from 20 generation subculture [1, 4]: 0.756
- PF1DT: PFDT of the sample obtained from 10 generation subculture [1, 5]: 0.840
- −log (p) (Spo) ([2]; gene cdc10, dose 80 μM): −6.16
- −log (p) (Spo) ([2]; gene snf21, dose 80 μM): −4.022

Compound: CN(C/C=C/C#CC(C)(C)C)Cc1cccc2ccccc12 [Terbinafine]
- −log (p) (Sce) ([3]; gene ERG1, dose 2.5 ug/ml): −80.59
- −log (p) (Sce) ([3]; gene RRP1, dose 7.2 μM): −4.515
- −log (p) (Spo) ([2]; S. pombe gene not printed (ortholog of RRP1), dose 0.03 μM): −6.1
- −log (p) (Spo) ([2]; gene erg1, dose 0.015 μM): −24.83
- −log (p) (Spo) ([2]; gene erg1, dose 0.03 μM): −49.77

Compound: Cn1c(=O)c2[nH]cnc2n(C)c1=O [Theophylline anhydrous]
- PF2DT: PFDT of the sample obtained from 20 generation subculture [1, 4]: 0.924
- PF1DT: PFDT of the sample obtained from 10 generation subculture [1, 5]: 0.887

Compound: Tunicamycin
- −log (p) (Sce) ([3]; gene ALG7, dose 0.015 μM): −5.227
- −log (p) (Sce) ([3]; gene ALG7, dose 150 ng/mL): −24
- PF2DT: PFDT of the sample obtained from 20 generation subculture [1, 4]: 1.027
- PF1DT: PFDT of the sample obtained from 10 generation subculture [1, 5]: 0.935
- PF1DT: PFDT of the sample obtained from 10 generation subculture [1, 6]: 0.954
- PF2DT: PFDT of the sample obtained from 20 generation subculture [1, 6]: 1.007
- −log (p) (Spo) ([2]; gene gpt2 heterozygous deletion, dose 0.03125 μM): −4.976
